These results are taken from US20160038459A1, “COMPOSITIONS AND METHODS FOR THE TREATMENT OF NATAL AND PRE-NATAL CONDITIONS WITH ALPHA-TOCOPHEROL” (Northwestern University, priority 2014, published 2016).

The nature of data set [1]: Liver tocopherol measurement by HPLC with electrochemical detection. Conditions: all groups of the D-α-tocopherol diet experiment (data not shown). In kind it is in vivo, C57BL/6 mice. As for the experimental part: Diets or livers were weighed and homogenized in absolute ethanol with 5% ascorbic acid on ice. The internal standard tocol is added to each […] to determine recovery. The homogenate or plasma was extracted with an equal volume of hexane with 0.37 wt/100 wt butylated hydroxytoluene to prevent oxidation and increase recovery of tocopherol. The samples were vortexed and then centrifuged for 10 min at 9,000 g at 4° C. The hexane layer was dried under nitrogen and stored at −20° C. The samples were reconstituted in methanol, and then tocopherols were separated using a reverse-phase C18 HPLC column (Hewlett Packard) and HPLC (Waters) with 99% methanol-1% water as a mobile phase with detection with an electrochemical detector (potential 0.7 V) (Waters).

Data set [2] in a line: Tissue γ-tocopherol after maternal γ-tocopherol-supplemented diet. It is filed as in vivo, C57BL/6 mice. The procedure: (§1) C57BL/6 female mice were sensitized with OVA/alum and challenged with OVA (150 μg) as in the timeline below. Then, the cages were supplied with basal diet (45 mg γ-tocopherol/kg diet) or γ-tocopherol supplemented diets (250 mg γ-tocopherol/kg diet) and males were introduced for breeding. The pups were administered a suboptimal dose of OVA/alum (i.e., one i.p. with OVA/alum and 3 challenges for 10 min with 3% OVA as previously described (Am J Respir Cell Mol Biol 2011. 44: 285 and Am J PhysiolLung Cell MolPhysiol. 2014, 15; 307:L482-96; both of which are herein incorporated by reference in their entireties).

Data set [3] relates to bone marrow-derived DCs co-cultured with CD4+ T cells. Briefly: Bone marrow-derived DCs co-cultured 48 hours with purified CD4+ T cells. In kind it is cell-based. Conditions: 2 μM γ-T; 48 hours co-culture (not shown). The procedure: FIGS. 17A-C show α-T and γ-T have opposing effects in regulation of DC development and function in vitro. FIGS. 17A and B show results from bone marrow from postnatal day 10 neonate (with basal diet) that was cultured with GM-CSF and with 80 μM αT (FIG. 17B) or 2 μM γT (FIG. 17A) for 8 days and analyzed for DC subsets by immunolabeling/flow cytometry. *, p<0.05 compared to DMSO group. **, p<0.05 compared to indicated group. […] Expression by qPCR. There was no effect on cell viability (not shown). n=3. **, p<0.05 compared to all other groups. *, p<0.05 compared to DMSO group.

The subject of data set [4] is OVA-challenged pups from allergic mothers. Briefly: Maternal γ-tocopherol supplementation of allergic mothers, suboptimal OVA challenge of pups. It is filed as in vivo, C57BL/6 mice. To be noted: for numbers of IRF4+CD11b+CD11c+ dendritic cells in pup lung: OVA-challenged pups from allergic mothers; for inflammatory mediators in OVA-treated pup lungs: protein array and ELISA of minced lung culture supernatants. As for the experimental part: as §1
On the technique in general: ELISA stands for enzyme-linked immunosorbent assay.

Setting [5] is: 250 mg γ-tocopherol/kg maternal diet.
[6] abbreviates: 250 mg γ-tocopherol/kg maternal diet, listed as γT.
Setting [7] is: 250 mg γ-tocopherol/kg maternal diet, allergic mothers.

Turning to `Cc1c(O)cc2c(c1C)O[C@](C)(CCC[C@H](C)CCC[C@H](C)CCCC(C)C)CC2` [γ-tocopherol], the “liver γ-tocopherol” value in data set [1] is < 0.003 μg γ-tocopherol/g liver tissue. In data set [2], the “tissue γ-tocopherol in mothers” value was “elevates” and the “tissue γ-tocopherol in pups” value was “elevates”. For the same compound, in data set [3], the cell viability entry is on record as “no effect”. In data set [4] (setting [5]), the “number of BAL leukocytes in OVA-challenged pups from allergic mothers” value is reported as “increases”, the “number of pups from supplemented allergic mothers” value was “fewer pups”, the “numbers of IRF4+CD11b+CD11c+ dendritic cells in pup lung” value is reported as “increases” and the “inflammatory mediators in OVA-treated pup lungs” value is recorded as “increases”. Moreover, the “pup responses to allergen challenge” value in data set [4] (250 mg γ-tocopherol/kg maternal diet during pregnancy/lactation, allergic mothers) was “elevated”. Also, in data set [4] (setting [6]), the “numbers of IRF4+CD11b+CD11c+ dendritic cells in pup lung” value is reported as “elevated numbers” and the “inflammatory mediators in OVA-treated pup lungs” value is “increased”. In addition, in data set [4] (setting [7]), the “numbers of CD11b expressing subsets of CD11c dendritic cells in pup lung” value is “increased numbers” and the “numbers of pup lung eosinophils” value is reported as “increased numbers”. In addition, in data set [4] (250 mg γ-tocopherol/kg maternal diet, percentage of mated females that had pups), the “number of allergic mothers with pups” value is reported as “reduced”.
